Test results: patent US9834526B2 (MERCK SHARP & DOHME CORP., priority 2013, dated 2017)

Molecular target: T1, wildtype HIV-1 protease (Human immunodeficiency virus type 1 group M subtype B, UniProt P04585)
T1 construct: preincubated with the HIV-1 protease (wild type) enzyme in assay buffer; made in house; host or cells: Escherichia coli
Test: Inhibition of microbial expressed HIV protease (Pepcleav)
Assay type: biochemical
Details: wild type HIV-1 protease expressed in E. coli, 20 pM enzyme, 400 micromolar peptide substrate, pH 5.5, LC-MS readout; mean of at least two independent experiments
Protocol: Assay for Inhibition of Microbial Expressed HIV Protease (“Pepcleav”)
Studies of the inhibition of the wildtype HIV-1 protease (which was expressed in Escherichia coli) were carried out with a peptide substrate [Val-Ser-Gln-Asn-(βnaphthyl)Ala-Pro-Ile-Val (SEQ ID NO:1)]. The inhibitor was first preincubated with the HIV-1 protease (wild type) enzyme in assay buffer (50 mM sodium acetate, pH 5.5, 100 mM NaCl, and 0.1% BSA) for 30 minutes at room temperature. Substrate was added to 400 micromolar in a total volume of 20 microliters containing 20 picomolar HIV-1 protease (final) and the reaction was incubated for 1 hour at 30° C. The reaction was quenched with the addition of formic acid and indinavir to 0.012% and 150 nM final concentrations, respectively. The product formation was determined after separation of product and substrate on a Zorbax Eclipse XDB-C18 column connected to an API 4000 mass spectrometer (Applied Biosystems) with multiple reaction monitoring (transitions were 644.5/428.9 and 615.4/422.2 (M1/M3) for product and indinavir respectively). The extent of inhibition of the reaction was determined from the peak area of the products. Analysis of the products, independently synthesized, provided quantitation standards and confirmation of the product composition.

Structure (SMILES) | IC50
COC(=O)N[C@H](C(=O)Nc1ccccc1CC[C@@H]1CN[C@H](C)[C@@H](CSc2ccc(Cl)cc2)O1)C(c1ccccc1)c1ccccc1 [Example 1, N-(2-{2-[(2R,5R,6S)-6-{[(4-chlorophenyl)sulfanyl]methyl}-5-methylmorpholin-2-yl]ethyl}phenyl)-Nα-(methoxycarbonyl)-β-phenyl-L-phenylalaninamide] | 17.5 nM
COC(=O)N[C@H](C(=O)Nc1ccccc1CC[C@@H]1CN[C@H](C)[C@@H](COc2ccc(C#N)cc2)O1)C(c1ccccc1)c1ccccc1 [Example 2] | 222 nM
COC(=O)N[C@H](C(=O)Nc1ccccc1CC[C@@H]1CN[C@H](C)[C@@H](CSc2ncccc2Cl)O1)C(c1ccccc1)c1ccccc1 [Example 3, N-(2-{2-[(2R,5R,6S)-6-{[(3-chloropyridin-2-yl)sulfanyl]methyl}-5-methylmorpholin-2-yl]ethyl}phenyl)-Nα-(methoxycarbonyl)-β-phenyl-L-phenylalaninamide] | 7.52 nM
COC(=O)N[C@H](C(=O)Nc1ccccc1CC[C@@H]1CN[C@H](C)[C@@H](CSc2cccc3ncccc23)O1)C(c1ccccc1)c1ccccc1 [Example 4, methyl [(2S)-1-{[2-(2-{(2R,5R,6S)-5-methyl-6-[(quinolin-5-ylsulfanyl)methyl]morpholin-2-yl}ethyl)phenyl]amino}-1-oxo-3,3-diphenylpropan-2-yl]carbamate] | 10.6 nM
COC(=O)N[C@H](C(=O)Nc1ccccc1CC[C@@H]1CN[C@H](C)[C@@H](CSc2nnc(-c3ccncc3)o2)O1)C(c1ccccc1)c1ccccc1 [Example 5, methyl N-[(1S)-1-benzhydryl-2-[[2-[2-[(2R,5R,6S)-5-methyl-6-[[5-(4-pyridyl)-1,3,4-oxadiazol-2-yl]sulfanylmethyl]morpholin-2-yl]ethyl]phenyl]amino]-2-oxo-ethyl]carbamate] | 4.96 nM
COC(=O)N[C@H](C(=O)Nc1ccccc1CC[C@@H]1CN[C@H](C)[C@@H](CSc2nnc(Cn3nccc3C)o2)O1)C(c1ccccc1)c1ccccc1 [Example 6, methyl N-[(1S)-1-benzhydryl-2-[[2-[2-[(2R,5R,6S)-5-methyl-6-[[5-[(5-methylpyrazol-1-yl)methyl]-1,3,4-oxadiazol-2-yl]sulfanylmethyl]morpholin-2-yl]ethyl]phenyl]amino]-2-oxo-ethyl]carbamate] | 5.12 nM
COC(=O)N[C@H](C(=O)Nc1ccccc1CC[C@@H]1CN[C@H](C)[C@@H](CSc2nnc(Cc3csc(C)n3)o2)O1)C(c1ccccc1)c1ccccc1 [Example 7, methyl N-[(1S)-1-benzhydryl-2-[[2-[2-[(2R,5R,6S)-5-methyl-6-[[5-[(2-methylthiazol-4-yl)methyl]-1,3,4-oxadiazol-2-yl]sulfanylmethyl]morpholin-2-yl]ethyl]phenyl]amino]-2-oxo-ethyl]carbamate] | 7.95 nM
COC(=O)N[C@H](C(=O)Nc1ccccc1CC[C@@H]1CN[C@H](C)[C@@H](CSc2ccc(Cl)cn2)O1)C(c1ccccc1)c1ccccc1 [Example 8, methyl N-[(1S)-1-benzhydryl-2-[[2-[2-[(2R,5R,6S)-6-[(5-chloro-2-pyridyl)sulfanylmethyl]-5-methyl-morpholin-2-yl]ethyl]phenyl]amino]-2-oxo-ethyl]carbamate] | 8.35 nM
COC(=O)N[C@H](C(=O)Nc1ccccc1CC[C@@H]1CN[C@H](C)[C@@H](CSc2cnc3ccccc3n2)O1)C(c1ccccc1)c1ccccc1 [Example 9, methyl N-[(1S)-1-benzhydryl-2-[[2-[2-[(2R,5R,6S)-5-methyl-6-(quinoxalin-2-ylsulfanylmethyl)morpholin-2-yl]ethyl]phenyl]amino]-2-oxo-ethyl]carbamate] | 8.48 nM
COC(=O)N[C@H](C(=O)Nc1ccccc1CC[C@@H]1CN[C@H](C)[C@@H](CSc2ncnc3[nH]ncc23)O1)C(c1ccccc1)c1ccccc1 [Example 10, methyl N-[(1S)-1-benzhydryl-2-[[2-[2-[(2R,5R,6S)-5-methyl-6-(1H-pyrazolo[3,4-d]pyrimidin-4-ylsulfanylmethyl)morpholin-2-yl]ethyl]phenyl]amino]-2-oxo-ethyl]carbamate] | 9.43 nM
